According to patent US20240298636A1, “ANTIMICROBIAL AGENTS AND FILMS MADE THEREFROM” (YISSUM RESEARCH DEVELOPMENT COMPANY OF THE HEBREW …, priority 2021, published 2024):

Assay: QCM-D analysis of peptide adsorption and Cu binding
Type: physicochemical
Conditions: for loaded mass/area of the peptide: 1.5 mg/mL in Tris buffer pH 8.5, after washing, Sauerbrey equation, 5th overtones
Description: Quartz Crystal Microbalance with Dissipation (QCM-D) Analysis: The peptides' adsorption and the metal-binding capabilities were studied using QCM-D (Q-sense, Biolin Scientific). The measurements were performed in a flow module E1 system with SiO2 sensors with a fundamental resonant frequency of 5 MHz (Qsense). The sensors were cleaned according to the supplier instructions. The experiments were performed under flow-through conditions using a digital peristaltic pump (IsmaTec Peristaltic Pump, IDEX). The peptide (1.5 mg/mL), control peptide (1.5 mg/mL), and CuCl2 (0.8 mg/mL) were dissolved in a filtered Tris buffer solution (pH=8.5, 10 mM). The solutions were injected circularly into the sensor crystal chamber at a rate of 0.1 mL/min. The peptide solution flowed for -4 h, the control peptide for −80 min, and the CuCl2 solution for -2 h. Between and after the coatings, the sensor was washed with the same Tris buffer solution. The adsorbed mass was calculated according to the Sauerbrey equation using the 5th overtones.

| Substance | loaded mass/area of the peptide | loaded mass/area of Cu bound to the peptide layer (Cu(II) solution (CuCl2 0.8 mg/mL) after washing with the buffer) | ratio of Cu ions per each peptide molecule (from loaded mass/area values) |
| --- | --- | --- | --- |
| NH2-(Phe)2-(His)6-OH [reference compound] | ~12 ng/cm^2 |  |  |
| NH2-DOPA-(Phe)2-(His)6-OH [peptide] | ~96 ng/cm^2 | ~9 ng/cm^2 | ~2 |
